Publication PMC8861431, “Tissue Pharmacokinetic Properties and Bystander Potential of Hypoxia-Activated Prodrug CP-506 by Agent-Based Modelling” (Frontiers in Pharmacology, 2022)

Columns and labels:
[1] = test system: POR-R cell line (POR-overexpressing HCT-116); experiment: Monolayer clonogenic assay (with monolayer ABM fit); assay type: cell-based, human; conditions: for k d M: kill probability rate constant in monolayer cultures: fitted by monolayer ABM to clonogenic survival under anoxia, set to zero for the prodrug, same kd assumed for metabolites
Method: Cells (4.8 x 10^5 cells) were seeded with 2 ml culture medium into 6-well plates and left to attach for 2 h in a humidified 37°C incubator. Compounds were then prepared in culture medium and added in a 500 µl volume to each well. Plates were returned to a humidified 37°C incubator for the duration of the drug exposure (4 h). Aerobic and anoxic experiments were performed as described above. Plates were then removed from the anaerobic chamber and processed alongside the aerobic cultures. Cells were detached from monolayer by trypsinisation and plated at serial dilutions in 6-well plates. Cells were left to grow in a standard 37°C incubator for 10 days until the controls formed discrete colonies comprised of at least 50 cells. Colonies were visualized by staining with methylene blue (2 g/L in 50% aqueous ethanol) for 30 min. The number of colonies with at least 50 cells was manually counted to determine the plating efficiency. The surviving fraction was determined as the ratio of plating efficiency of treated cells to that of the controls.
An agent-based model (ABM) employing a one-dimensional approximation for monolayers was used to develop a cellular PK model, as described in further detail elsewhere ([Hong et al., 2018b]; [Mao et al., 2018]). The mathematical framework assumes that solute concentrations in the medium are dependent only on the depth (on the z coordinate) and not the lateral position (x,y) so that all cells are exposed to the same concentration of nutrients and drugs within the monolayer culture. Moreover, all cells have the same rate of metabolism and volume growth at any instance with variability allowed in cell volume, rate of cell division and cell death. Monolayer ABM simulations were performed on a desktop Windows PC (Intel core I7 processor) from a Qt (Qt Company, https://www.qt.io/) graphical user interface passing parameters to a DLL built with Fortran95. The monolayer ABM uses a finite difference method to solve reaction-diffusion equations for each compound (N) in the medium and cells. Parameters for the cellular uptake and metabolism were fitted to the concentration-time profiles of CP-506 and its metabolites in monolayer cultures of POR-R cells using a linear (first order) cell transport and metabolism model. Terms for the extracellular instability of CP-506 and its metabolites were set at their respective values in media stability studies, and media diffusion coefficients were estimated from the support membrane diffusion coefficients described below. Experimental data describing the kinetics of CP-506 uptake under aerobic conditions was fitted by adjusting the permeability coefficients kin and kout for each compound. These values were fixed for anoxic experiments to allow for parameter estimation of the rate of intracellular CP-506 metabolism (kmet0) as well as the intracellular/extracellular partitioning ratio (kin and kout) and metabolic instability (kmet0) for its cytotoxic metabolites.
The spheroid ABM is described in further detail elsewhere ([Hong et al., 2018b]; [Mao et al., 2018]). The model employs two 3D grids and two solvers, a coarse grid represents the culture medium and is embedded with a much finer grid that represents the spheroid in a small cubic region at the bottom of the well. The spheroid grows in a specified volume and depth of unstirred medium containing dissolved oxygen. The geometry of the model is lattice-based, in which cells occupy cubic sites on a regular 3D lattice and grow in volume at a rate dependent on the local oxygen concentration. Autonomous cell mobility and cell-cell forces are not simulated. Cell motion occurs only as a result of cell division. Cells divide when the volume reaches a pre-set value (Vdiv) and the resultant daughter cell occupies an adjacent empty lattice site. […] The oxygen concentration at the air-medium boundary is defined by the gas phase of the culture environment. […]

[2] = test system: HCT-116 cell line panel; experiment: Anti-proliferative IC50 assay of authentic CP-506 metabolites; assay type: cell-based, human; conditions: Homo sapiens, HCT-116, 120 h, read-out: Anti-proliferative IC50 of metabolite
Method: Cells (700–1,000 per well) were seeded with 100 µl culture medium into 96-well plates and left to attach for 2 h in a humidified 37°C incubator. Compounds were prepared in culture medium and serially diluted (1:3) in the well volume. […] Aerobic experiments were performed under standard tissue culture conditions (21% O2), and the anoxic experiments were performed in parallel in a 5% H2/Pd catalyst anaerobic chamber (Shellab Bactron, Sheldon manufacturing Inc., Cornelius, OR) using pre-equilibrated media and plasticware. All anoxia experiments were conducted using a catalyst-scrubbed anaerobic chamber, unless otherwise specified, with gas oxygen measurements of <1 ppm O2. Cells were then washed three times and left to grow for 96 h before cell density determination using a sulforhodamine B (SRB) assay ([Vichai and Kirtikara, 2006]). To this end, the cells were fixed by layering 50 µl of trichloroacetic acid (40% w/v in MilliQ water) on top of the culture media (150 µl) in each well for 1 h at 4°C. Plates were rinsed under running tap water and stained with 50 µl of SRB (0.4% w/v in MilliQ water containing 1% v/v acetic acid) for 30 min at room temperature. Plates were rapidly destained by rinsing three times in tap water containing 1% (v/v) acetic acid. The stain was solubilized by adding 100 µl of 10 mM unbuffered Tris base to each well with gentle rocking for 1 h. Plates were read on a Biotek ELx808 Absorbance Microplate Reader at 490 nm using KC4 software. The IC50 value (concentration required to reduce staining to 50% of the untreated control on the same plate) for each compound was determined by interpolation using a 4-parameter logistic regression model.
FIGURE 3 Hypoxia-dependent metabolism of CP-506 leads to the formation of a multitude of short-lived species with variable cytotoxicity. (A) Bioreductive metabolism of CP-506 under normoxic (21% O2) and anoxic conditions (<1 ppm O2). Concentrations of CP-506 and its metabolites (CP-506H, CP-506M and CP-506M-Cl2) were quantified by mass spectrometry with reference to the appropriate deuterated (D8) internal standard. Values are the mean ± SEM for three independent experiments. (B) Stability of CP-506 metabolites in culture medium (without cells) at 37°C. Concentrations were determined by mass spectrometry using standard curves generated from authenticated stocks. […] IC50 values are the mean ± SEM of duplicate wells for three independent experiments. T-tests were performed using GraphPad Prism 8 (ns, p-value > 0.05; *, p-value ≤ 0.05; **, p-value ≤ 0.01; ***, p-value ≤ 0.001).

| SMILES | IC50 ([1]; Homo sapiens, HCT-116, POR-R monolayer, 4 h exposure, <1 ppm O2, read-out: Clonogenic IC50 under anoxia) | k d M: kill probability rate constant in monolayer cultures [1] | IC50 [2] |
| --- | --- | --- | --- |
| CCN1CCN(C(=O)c2cc(N(CCBr)CCOS(C)(=O)=O)c(S(C)(=O)=O)cc2[N+](=O)[O-])CC1 [CP-506, 2-[(2-bromoethyl)-5-[(4-ethyl-1-piperazinyl)carbonyl]-2-(methylsulfonyl)-4-nitroanilino]ethyl methanesulfonate] | 0.8 ± 0.3 µM | 0 |  |
| CCN1CCN(C(=O)c2cc(N(CCBr)CCOS(C)(=O)=O)c(S(C)(=O)=O)cc2NO)CC1 [CP-506H, 2-((2-bromoethyl)(5-(4-ethylpiperazine-1-carbonyl)-4-(hydroxyamino)-2-(methylsulfonyl)phenyl)amino)ethyl methanesulfonate] |  | 0.01 | < 10 µM |
| CCN1CCN(C(=O)c2cc(N(CCBr)CCOS(C)(=O)=O)c(S(C)(=O)=O)cc2N)CC1 [CP-506M, 2-((4-amino-5-(4-ethylpiperazine-1-carbonyl)-2-(methylsulfonyl)phenyl)(2-bromoethyl)amino)ethyl methanesulfonate] |  | 0.01 | < 10 µM |
| CCN1CCN(C(=O)c2cc(N(CCCl)CCCl)c(S(C)(=O)=O)cc2N)CC1 [CP-506M-Cl2, (2-Amino-5-(bis(2-chloroethyl)amino)-4-(methylsulfonyl)phenyl)(4-ethylpiperazin-1-yl)methanone] |  | 0.01 | < 10 µM |
